Measured values reported in US6962713B2, “Spot-on formulations for combating parasites” (Merial, priority 1919, dated 2005).
“And” between values parts separate entries of the source, which are not always exact repeats. Identical values can stand only once. Marks after values point to notes of the source that are not given here.

Experiments:
[1] = Plasma kinetics of ivermectin after oral administration of Cardomec to dogs; format: in vivo, dog
Procedure: Five male Beagle dogs received a dose of approximately 6 μg.kg^−1 of ivermectin, i.e., one 68 μg Cardomec® tablet per dog. The animals were fasted prior to administration and up to 6 hours after treatment to prevent a possible interaction with food.
Blood samples were collected at intervals up to 28 days post-dosing. The determination of ivermectin in dog plasma was carried out by HPLC using fluorescence detection after derivatization. The limit of quantification was 100 pg.ml^−1.

[2] = Plasma kinetics of ivermectin after spot-on application at different doses in combination with fipronil to dogs; format: in vivo, dog; settings: for Cmax, Mean: spot-on with fipronil 10 mg.kg^−1, dogs, mean of 3; for t½, Mean: harmonic mean
Procedure: This study was undertaken in order to assess the linearity of the percutaneous passage of ivermectin after spot-on application of different doses of ivermectin (100, 250, 500 and 1000 μg.kg^−1) in combination with fipronil (10 mg.kg^−1) to the dog. Furthermore, the possibility of control both heartworms and gastro-intestinal nematodes was evaluated.
Twelve male Beagle dogs (allocated into 4 groups of 3 animals were applied spot-on formulations combining ivermectin (0.1%, 0.25%, 0.5% and 1%) and fipronil (10%) at a dose rate of 0.1 ml.kg^−1 (i.e. 100, 250, 500 and 1000 μg.kg^−1 of ivermectin and 10 mg.kg^−1 of fipronil).
The formulations are as follows: […]
The formulations were applied at one spot onto the skin between the shoulder blades.
Blood samples were collected at intervals up to 56 days post treatment.
The determination of ivermectin was carried out by HPLC after an automated solid/liquid extraction, using fluorescence detection, with limit of quantification of 100 pg.ml^−1. The determination of fipronil and its sulfone metabolite (RM1602) was carried out by HPLC with UV detection, with a limit of quantification of 20 ng.ml^−1 for fipronil and RM1602. Both methods were validated in terms of specificity, extraction recovery, linearity, precision and accuracy.

[3] = Cardomec oral 6 μg.kg^−1, 5 fasted dogs, mean
[4] = Cardomec oral 6 μg.kg^−1, 5 fasted dogs, range over dogs
[5] = Cardomec oral 6 μg.kg^−1, fasted dogs, individual dogs
[6] = spot-on with fipronil, dogs, Group I 100 μg.kg^−1 ivermectin
[7] = spot-on with fipronil, dogs, Group I 100 μg.kg^−1 ivermectin, range over dogs
[8] = spot-on with fipronil, dogs, Group II 250 μg.kg^−1 ivermectin
[9] = spot-on with fipronil, dogs, Group II 250 μg.kg^−1 ivermectin, range over dogs
[10] = spot-on with fipronil, dogs, Group III 500 μg.kg^−1 ivermectin
[11] = spot-on with fipronil, dogs, Group III 500 μg.kg^−1 ivermectin, range over dogs
[12] = spot-on with fipronil, dogs, Group IV 1000 μg.kg^−1 ivermectin
[13] = spot-on with fipronil, dogs, Group IV 1000 μg.kg^−1 ivermectin, range over dogs

## ivermectin
[1]; [3]
  AUC(0-t), Mean: 1534 pg·days/mL
  AUC(0-∞), Mean: 1859 pg·days/mL
  AUC, mean: 44.604 ng·h/mL
  Cmax, Mean: 1.362 ng/mL
[1]; [4]
  AUC(0-t), Range: [187-3246] pg.d.ml^−1
  AUC(0-∞), Range: [382-3789] pg.d.ml^−1
[1]; Cardomec oral 6 μg.kg^−1, fasted dogs, 0 h, mean of 5 dogs
  Plasma concentrations of ivermectin, Mean: BLQ (Below the Limit of Quantification (100 pg.ml^−1))
[1]; Cardomec oral 6 μg.kg^−1, fasted dogs, 0.75 h, mean of 5 dogs (BLQ taken as 0)
  Plasma concentrations of ivermectin, Mean: 0.119 ng/mL
[1]; Cardomec oral 6 μg.kg^−1, fasted dogs, 1.5 h, mean of 5 dogs (BLQ taken as 0)
  Plasma concentrations of ivermectin, Mean: 0.536 ng/mL
[1]; Cardomec oral 6 μg.kg^−1, fasted dogs, 2 h, individual dogs
  Plasma concentrations of ivermectin: 1132 pg.ml^−1 and 674 pg.ml^−1 and BLQ (Below the Limit of Quantification (100 pg.ml^−1)) and 1817 pg.ml^−1 and 264 pg.ml^−1
[1]; Cardomec oral 6 μg.kg^−1, fasted dogs, 2 h, mean of 5 dogs (BLQ taken as 0)
  Plasma concentrations of ivermectin, Mean: 0.777 ng/mL
[1]; Cardomec oral 6 μg.kg^−1, fasted dogs, 3 h, mean of 5 dogs
  Plasma concentrations of ivermectin, Mean: 1.199 ng/mL
[1]; Cardomec oral 6 μg.kg^−1, fasted dogs, 4 h, mean of 5 dogs
  Plasma concentrations of ivermectin, Mean: 1.098 ng/mL
[1]; Cardomec oral 6 μg.kg^−1, fasted dogs, 6 h, mean of 5 dogs
  Plasma concentrations of ivermectin, Mean: 0.956 ng/mL
[1]; Cardomec oral 6 μg.kg^−1, fasted dogs, 8 h, mean of 5 dogs
  Plasma concentrations of ivermectin, Mean: 0.769 ng/mL
[1]; Cardomec oral 6 μg.kg^−1, fasted dogs, 10 h, mean of 5 dogs
  Plasma concentrations of ivermectin, Mean: 0.798 ng/mL
[1]; Cardomec oral 6 μg.kg^−1, fasted dogs, 12 h, mean of 5 dogs
  Plasma concentrations of ivermectin, Mean: 0.783 ng/mL
[1]; Cardomec oral 6 μg.kg^−1, fasted dogs, 24 h, mean of 5 dogs
  Plasma concentrations of ivermectin, Mean: 0.525 ng/mL
[1]; Cardomec oral 6 μg.kg^−1, fasted dogs, 32 h, mean of 5 dogs (BLQ taken as 0)
  Plasma concentrations of ivermectin, Mean: 0.338 ng/mL
[1]; Cardomec oral 6 μg.kg^−1, fasted dogs, D 2, mean of 5 dogs (ND included as BLQ = 0)
  Plasma concentrations of ivermectin, Mean: 0.268 ng/mL
[1]; Cardomec oral 6 μg.kg^−1, fasted dogs, D 3, mean of 5 dogs (ND included as BLQ = 0)
  Plasma concentrations of ivermectin, Mean: 0.173 ng/mL
[1]; Cardomec oral 6 μg.kg^−1, fasted dogs, D 4, mean of 5 dogs (ND, BLQ taken as 0)
  Plasma concentrations of ivermectin, Mean: 0.108 ng/mL
[1]; Cardomec oral 6 μg.kg^−1, fasted dogs, D 5, mean of 5 dogs, one value above the limit of quantification
  Plasma concentrations of ivermectin, Mean: BLQ* (Below the Limit of Quantification (100 pg.ml^−1))
[1]; Cardomec oral 6 μg.kg^−1, fasted dogs, D 7, mean of 5 dogs, one value above the limit of quantification
  Plasma concentrations of ivermectin, Mean: BLQ* (Below the Limit of Quantification (100 pg.ml^−1))
[1]; Cardomec oral 6 μg.kg^−1, fasted dogs, D 9, mean of 5 dogs
  Plasma concentrations of ivermectin, Mean: BLQ (Below the Limit of Quantification (100 pg.ml^−1))
[1]; Cardomec oral 6 μg.kg^−1, fasted dogs, D 14, mean of 5 dogs
  Plasma concentrations of ivermectin, Mean: BLQ (Below the Limit of Quantification (100 pg.ml^−1))
[1]; Cardomec oral 6 μg.kg^−1, fasted dogs, D 21, mean of 5 dogs
  Plasma concentrations of ivermectin, Mean: BLQ (Below the Limit of Quantification (100 pg.ml^−1))
[1]; [5]
  AUC(0-t): 3246 pg·days/mL and 1545 pg·days/mL and 743 pg·days/mL and 1949 pg·days/mL and 187 pg·days/mL
  AUC(0-∞): 3789 pg·days/mL and 1813 pg·days/mL and 1027 pg·days/mL and 2282 pg·days/mL and 382 pg·days/mL
  Cmax: 2.964 ng/mL and 0.911 ng/mL and 0.557 ng/mL and 1.955 ng/mL and 0.422 ng/mL
  tmax: 3 h (2×) and 12 h (2×) and 4 h
  t½: 64.5 h and 33.5 h and 37.5 h and 39.2 h and 26.0 h and 64.6 h and 33.6 h and 37.4 h and 39.1 h and 25.9 h
[2]; Example 7 versus Example 6, 250 μg.kg^−1 ivermectin spot-on, dogs
  difference in parameters of absorption (Cmax and AUC) between the two studies: > 2 fold
[2]; same formulation (0.25% ivermectin, 10% fipronil), same dose 250 μg.kg^−1, dogs
  plasma concentrations of ivermectin compared with Example 6: much lower
[2]; Group I 100 μg.kg^−1 ivermectin
  Cmax, Mean: 0.136 ng/mL
[2]; Group II 250 μg.kg^−1 ivermectin
  Cmax, Mean: 0.508 ng/mL
[2]; Group III 500 μg.kg^−1 ivermectin
  Cmax, Mean: 1.064 ng/mL
[2]; Group IV 1000 μg.kg^−1 ivermectin
  Cmax, Mean: 1.802 ng/mL
[2]; [6]
  AUC (0-Clast), Mean: 382 pg·days/mL
  Tlast, Mean: 7 days
  tmax, Mean: 7 days
[2]; [7]
  AUC (0-Clast), Range: [0-775] pg.d.ml^−1
  Cmax, Range: [0-235] pg.ml^−1
  Tlast, Range: [5-9] d
  tmax, Range: [5-9] d
[2]; [8]
  t½, Mean: 9.8 (#) d
  AUC (0-Clast), Mean: 7808 pg·days/mL
  Tlast, Mean: 28 days
[2]; spot-on with fipronil, dogs, Group II 250 μg.kg^−1 ivermectin, aberant value of 21 days not taken into account
  tmax, Mean: 4.5* d
[2]; [9]
  AUC (0-Clast), Range: [4949-10019] pg.d.ml^−1
  Cmax, Range: [250-723] pg.ml^−1
  tmax, Range: [4-5] d
  t½, Range: [6.4-35.0] d
[2]; [10]
  t½, Mean: 11.4 (#) d
  AUC (0-Clast), Mean: 17200 pg·days/mL
  Tlast, Mean: 37 days
  tmax, Mean: 5.7 days
[2]; [11]
  AUC (0-Clast), Range: [9088-23274] pg.d.ml^−1
  Cmax, Range: [410-572] pg.ml^−1
  tmax, Range: [3-7] d
  t½, Range: [9.0-16.5] d
[2]; [12]
  t½, Mean: 10.2 (#) d
  AUC (0-Clast), Mean: 29711 pg·days/mL
  Tlast, Mean: 40 days
  tmax, Mean: 3.3 days
[2]; [13]
  AUC (0-Clast), Range: [16759-39734] pg.d.ml^−1
  Cmax, Range: [1669-1966] pg.ml^−1
  tmax, Range: [2-5] d
  t½, Range: [7.6-12.2] d
[2]; spot-on with fipronil, dogs, dose of 250 μg.kg^−1
  mean AUC(0-Clast): 7808 pg·days/mL
